PMC4754685 (Scientific Reports, 2016)

Target: T1, Mlp37p (periplasmic fragment of Mlp37) (Vibrio cholerae, UniProt A0A0H3AES3)
T1 construct: gene VC0395_0316
Assay: biochemical

T1 sequence (A0A0H3AES3 58-303 limits assumed): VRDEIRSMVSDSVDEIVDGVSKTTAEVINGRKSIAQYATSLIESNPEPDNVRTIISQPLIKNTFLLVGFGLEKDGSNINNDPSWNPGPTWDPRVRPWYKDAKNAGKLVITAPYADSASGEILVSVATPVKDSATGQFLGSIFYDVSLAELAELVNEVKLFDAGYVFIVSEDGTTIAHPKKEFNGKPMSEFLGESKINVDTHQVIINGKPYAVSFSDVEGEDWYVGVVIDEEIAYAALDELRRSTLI

| Structure (SMILES) | Kd |
| --- | --- |
| C[C@H](N)C(=O)O [L-alanine] | 2.7 µM |
| N=C(N)NCCC[C@H](N)C(=O)O [L-arginine] | 5.6 µM |
| N[C@@H](CO)C(=O)O [L-serine] | 3.6 µM |
| NCCS(=O)(=O)O [taurine, 2-aminoethanesulfonic acid] | 3.2 µM |
